Data reported in patent US5063224A, “R-cefuroxime axetil” (priority 1990, dated 1991).
≈ marks a conversion by molar mass, not a printed value.

What was measured:
[1] = test system: esterase enzymes in blood serum; assay: Hydrolysis by esterase enzymes in dog blood serum (Example 5); type: in vitro ADME
Experimental: The following study was conducted to establish that S-cefuroxime axetil is hydrolyzed to cefuroxime acid much more rapidly by esterase enzymes in blood serum than the R-cefuroxime axetil of this invention.
Blood serum was obtained from an 11.5 kg male dog two days prior to sacrifice. The whole blood was centrifuged for fifteen minutes at 3500 rpm and 4° C. The serum thus collected was diluted with ten parts Sorenson's phosphate buffer pH 7.4.
A solution was prepared by dissolving 0.29 mg of R-cefuroxime axetil in 50 ml of Sorenson's phosphate buffer pH 7.4. Another solution was prepared by dissolving 0.26 mg of S-cefuroxime acetil in 50 ml of Sorenson's phosphate buffer pH 7.4.
Triplicate test tubes containing 2.75 ml of the R-cefuroxime axetil solution, and triplicate tubes containing 2.75 ml of the S-cefuroxime axetil solution, were each heated to 37° C. and diluted with 0.25 ml of the serum preparation from above. Aliquot portions (200 μl each) from each tube were drawn at thirty minute intervals, diluted with 100 μl of 10% aqueous trichloracetic acid, and 100 μl of acetonitrile. The samples were centrifuged at 3000 rpm for five minutes to precipitate the proteins, and then transferred to autosampler tubes for determination of cefuroxime free acid content. Analysis was conducted using a Beckman 344 gradient high performance liquid chromatography column packed with zorbox C18 reverse phase, with an eluant comprised of 40 parts methanol and 60 parts water. Standard integration of HPLC curves were carried out to convert the area to a mg/ml equivalent.

physchem = type: physicochemical; settings: organic solvent or mixture
Experimental: The substantially pure R-cefuroxime axetil of this invention is prepared by selectively solubilizing the R-isomer in a solvent in which the S-isomer is only minimally soluble relative to the R-isomer. Solvents commonly employed are those in which the R-isomer is about six times more soluble in a given volume than the S-isomer. […] Generally, a mixture of R and S-cefuroxime axetil, prepared as described in GB 2,145,409A, and containing the R and S-isomers, is added to a solvent to form a slurry. The best results are obtained employing a solvent that provides sufficient solubility to maintain the desired volume at a minimum. Preferred solvents include alcohols such as methanol and ethanol. […] In isopropanol at 25° C., the R-isomer is 1.84 mg/ml, and the S-isomer is 0.44 mg/ml. In n-butanol at 25° C., the R-isomer is 1.0 mg/ml and the S-isomer is 0.3 mg/ml. In ethyl acetate at 25° C., the R-isomer is 13.42 mg/ml, and the S-isomer is 10.0 mg/ml.

[2] = Hydrolysis in dog gut cell (intestine) preparation (Example 6); type: in vitro ADME
Experimental: About 18 inches of intestine was removed from a 13 month old male dog weighing 11.5 kg. The intestine section was washed several times with Sorenson's solution, and then sliced open lengthwise. The intestine cells were collected by scraping the inner surface of the intestine with a glass microscope slide, and provided 6.10 g of cell tissue. The cell tissue was placed in 30.5 ml of Sorenson's pH 7.5 phosphate buffer. The mixture was homogenized for 30 seconds with a Tek-Mar tissuemizer. The resulting suspension was centrifuged at 4° C. at 3500 rpm for 15 minutes.
Following the general procedure of Example 2, 0.277 mg of R-cefuroxime axetil was dissolved in 50 ml of Sorenson's pH 7.4 buffer, and 0.263 mg of S-cefuroxime axetil was dissolved in 50 ml of Sorenson's pH 7.4 buffer.
Triplicate tubes of 2.75 ml of the R-cefuroxime axetil solution, and triplicate tubes of the S-cefuroxime axetil solution, were allowed to equilibrate to 37° C., and then 0.25 ml of the intestine mixture from above was added to each tube. Aliquot samples were withdrawn every 30 minutes for two hours, and each 200 μl of 10% aqueous trichloroacetic acid and 100 μl of acetonitrile. […] The assays were analyzed for unchanged R- or S-cefuroxime axetil and afforded the following results.

[3] = Microbiological assay of biological potency (Example 2 product); settings: product with 85% by weight R- and 15% S-cefuroxime axetil
[4] = oral administration; cited from earlier work

Row | SMILES | hydrolysis rate relative to R-cefuroxime axetil in blood serum [1] | hydrolysis in blood serum (in words) ([1]; vs R-cefuroxime axetil) | solubility (physchem; ethanol) [µg/mL] | solubility (physchem; ethyl acetate) [µg/mL] | solubility (physchem; isopropanol) [µg/mL] | solubility (physchem; methanol) [µg/mL] | solubility (physchem; n-butanol) [µg/mL] | hydrolysis rate relative to R-cefuroxime axetil in intestinal preparations [2] | hydrolysis in the dog gut (in words) ([2]; vs R-cefuroxime axetil) | half-life (in words) [1] | biological potency [3] [%] | bioavailability of the cefuroxime antibiotic [4]
1 | CO/N=C(\C(=O)N[C@@H]1C(=O)N2C(C(=O)O[C@@H](C)OC(C)=O)=C(COC(N)=O)CS[C@H]12)c1ccco1 [S-cefuroxime axetil, reference compound] | about 25 fold | hydrolyzed much more rapidly | ~2980 (≈ 5.84 mM) | 10000 (≈ 19.6 mM) | 440 (≈ 0.862 mM) | 90000 (≈ 176 mM) | 300 (≈ 0.588 mM) | about 3 fold | hydrolyzed much more rapidly |  |  | 
2 | CO/N=C(\C(=O)N[C@@H]1C(=O)N2C(C(=O)O[C@H](C)OC(C)=O)=C(COC(N)=O)CS[C@H]12)c1ccco1 [R-cefuroxime axetil] |  |  | 12000 (≈ 23.5 mM) | 13400 (≈ 26.3 mM) | 1840 (≈ 3.6 mM) | 391000 (≈ 767 mM) | 1000 (≈ 1.96 mM) |  |  | longer half-life | 99 | 
3 | CO/N=C(\C(=O)N[C@@H]1C(=O)N2C(C(=O)OC(C)OC(C)=O)=C(COC(N)=O)CS[C@H]12)c1ccco1 (mixture of isomers) [R,S-mixture of cefuroxime axetil, 1-acetoxyethyl ester of cefuroxime] |  |  |  |  |  |  |  |  |  |  |  | about fifty
